Five compounds from ChEMBL document CHEMBL3045888, “Synthesis and anti-hypertensive activity of novel sulphadimidine derivatives” (Med Chem Res, 2012) can be followed below.

Each structure is given as a SMILES string. Active and inactive are the calls of the source. The rule behind the calls is not given here.

The subject of the assay is Rattus norvegicus. In words: Antihypertensive activity in hypertensive Rattus norvegicus Sprague-Dawley (rat) model assessed as reduction in mean systolic blood pressure level at 0.3 mg/kg, ip after 1 hr by non-invasive tail cuff method. It counts as functional, organism-based. Set-up: dose 0.3 mg/kg. The settings on record: Artery.

For the compound `CCN(Cc1ccccc1)c1ccc(/N=N\c2ccc(S(=O)(=O)Nc3nc(C)cc(C)n3)cc2)cc1`, the outcome was Active. Turning to `COc1cc2nc(N3CCN(C(=O)c4ccco4)CC3)nc(N)c2cc1OC`, the result was Active. In the case of `CCNc1ccc(/N=N\c2ccc(S(=O)(=O)Nc3nc(C)cc(C)n3)cc2)cc1`, the outcome was Active.

Consider `CCN(CC)c1ccc(/N=N\c2ccc(S(=O)(=O)Nc3nc(C)cc(C)n3)cc2)cc1`, for which the result was Active. As for `Cc1cc(C)nc(NS(=O)(=O)c2ccc(/N=N\c3ccc(N(C)C)cc3)cc2)n1`, the entry is “Active”.
